Data set [1] relates to HepG2. Briefly: Growth inhibition of human HepG2 cells at 10 uM by MTT assay relative to control. The class given is functional. Particulars: for inhibition of growth at 10 µM: read-out: GI.
The test system of data set [2] is MCF7. Put plainly: Growth inhibition of human MCF7 cells at 10 uM by MTT assay relative to control. It counts as functional. The settings on record: for inhibition of growth at 10 µM: read-out: GI. (In general: Tetrazolium dyes change colour on reduction, which living cells bring about.)
For data set [3], the system named is HepG2. Briefly: Growth inhibition of human HepG2 cells by MTT assay. It counts as functional.
In data set [4] the test system is MCF7. Put plainly: Growth inhibition of human MCF7 cells by MTT assay. It counts as functional.
Data set [5] is described as follows: Growth inhibition of human L-132 cells by MTT assay. It counts as cell-based, L132.
Data set [6] can be described thus: Selectivity index, ratio of GI50 for human L-132 cells to GI50 for human MCF7 cells.
Data set [7] is described as follows: Selectivity index, ratio of GI50 for human L-132 cells to GI50 for human HepG2 cells.

Activity calls are given as the source filed them. No cut-off for these calls is given here. A value given as a limit tells only on which side of the number the result lay.

As a reminder, the GI50 is the concentration giving 50% growth inhibition. Low readings indicate greater sensitivity of the cells, high ones lower sensitivity of the cells. For the compound `COc1cc2oc(-c3ccccc3)cc(=O)c2c(OC)c1OC` [BAICALEIN TRIMETHYL ETHER], the inhibition of growth at 10 µM in data set [1] and in data set [2] was over 50% in each case. For the same compound, the GI50 came out at 54 µM in data set [3] and 91.4 µM in data set [4].

Consider `COc1ccc(C(=O)Nc2cccc(-c3cc(=O)c4c(O)c(OC)c(OC)cc4o3)c2)cc1`, for which the inhibition of growth at 10 µM in data set [1] and in data set [2] was over 50% throughout. Moreover, the GI50 in data set [3] was over 100 µM; in data set [4], 2.05 µM.

For the compound `COc1cc2oc(-c3cccc(NC(=O)c4ccc5c(c4)OCO5)c3)cc(=O)c2c(OC)c1OC`, the inhibition of growth at 10 µM in data set [1] and in data set [2] was over 50% throughout. Also, the results for the GI50 in data set [3], in data set [4] and in data set [5] were 5.94 µM, 9.12 µM and 18 µM, respectively. The RatioGI50 in data set [6] and in data set [7] was 2 - 3 throughout.

As for `COc1cc2oc(-c3ccc(NC(=O)c4ccc([N+](=O)[O-])cc4)cc3)cc(=O)c2c(O)c1OC`, the results for the inhibition of growth at 10 µM in data set [1] and in data set [2] were 40% and under 50%, respectively.

For `COc1cc2oc(-c3cccc(NC(=O)c4ccc(C)cc4)c3)cc(=O)c2c(OC)c1OC`, the inhibition of growth at 10 µM in data set [1] and in data set [2] was over 50% throughout. In addition, the 50% growth inhibitory concentration (GI50) in data set [3] came out at 9.75 µM; in data set [4], 8.32 µM.

Consider `COc1cc2oc(-c3cccc(NC(=O)c4ccc(F)cc4)c3)cc(=O)c2c(OC)c1OC`, for which the inhibition of growth at 10 µM in data set [1] and in data set [2] was over 50% in each case. Besides, the GI50 in data set [3] was found to be 47.2 µM; in data set [4], 14.7 µM.

As for `COc1ccccc1C(=O)Nc1ccc(-c2cc(=O)c3c(O)c(OC)c(OC)cc3o2)cc1`, the inhibition of growth at 10 µM in data set [1] and in data set [2] was under 50% throughout.

`COc1ccccc1C(=O)Nc1cccc(-c2cc(=O)c3c(OC)c(OC)c(OC)cc3o2)c1`: the inhibition of growth at 10 µM in data set [1] and in data set [2] was over 50% each time. Also, the 50% growth inhibitory concentration (GI50) in data set [3] amounted to 7.53 µM; in data set [4], 15.3 µM.

Take `COc1cc([C@@H]2c3cc4c(cc3[C@@H](O[C@@H]3O[C@@H]5CO[C@@H](C)O[C@H]5[C@H](O)[C@H]3O)[C@H]3COC(=O)[C@H]23)OCO4)cc(OC)c1O` [ETOPOSIDE]: in data set [5], the GI50 worked out at 10.4 µM.

For the compound `COc1cccc(C(=O)Nc2ccc(-c3cc(=O)c4c(O)c(OC)c(OC)cc4o3)cc2)c1`, the inhibition of growth at 10 µM in data set [1] and in data set [2] was under 50% each time.

Turning to `COc1cc2oc(-c3ccc(NC(=O)c4ccc(C(F)(F)F)cc4)cc3)cc(=O)c2c(O)c1OC`, the inhibition of growth at 10 µM in data set [1] and in data set [2] was under 50% each time.

On to `COc1cccc(C(=O)Nc2cccc(-c3cc(=O)c4c(OC)c(OC)c(OC)cc4o3)c2)c1`, for which the inhibition of growth at 10 µM in data set [1] and in data set [2] was over 50% throughout. In addition, the GI50 in data set [3] came to 7.06 µM; in data set [4], 7.67 µM; in data set [5], 20.9 µM. Moreover, the RatioGI50 in data set [6] and in data set [7] was 2 - 3 in each case.

Take `COc1cc2oc(-c3ccc(NC(=O)c4ccc5c(c4)OCO5)cc3)cc(=O)c2c(O)c1OC`: the values for the inhibition of growth at 10 µM in data set [1] and in data set [2] were 40% and under 50%, respectively.

On to `COc1cc2oc(-c3ccc(NC(=O)c4ccc(C)cc4)cc3)cc(=O)c2c(O)c1OC`, for which the inhibition of growth at 10 µM in data set [1] and in data set [2] was under 50% in each case.

With `COC(=O)c1ccc(C(=O)Nc2ccc(-c3cc(=O)c4c(O)c(OC)c(OC)cc4o3)cc2)cc1`, the inhibition of growth at 10 µM in data set [1] and in data set [2] was under 50% throughout.

`COc1cc2oc(-c3cccc(NC(=O)c4ccc(C(F)(F)F)cc4)c3)cc(=O)c2c(OC)c1OC`: the inhibition of growth at 10 µM in data set [1] and in data set [2] was over 50% each time. The GI50 in data set [3] was determined as 61.1 µM; in data set [4] it was 10.6 µM.

Take `COc1cc2oc(-c3cccc(NC(=O)c4cccc(Br)c4)c3)cc(=O)c2c(OC)c1OC`: the inhibition of growth at 10 µM in data set [1] and in data set [2] was over 50% in each case. In addition, the concentration for 50% growth inhibition (GI50) in data set [3] is 10.9 µM; in data set [4], 6.34 µM.

Turning to `COc1cc2oc(-c3cccc(NC(=O)c4ccc(Cl)cc4)c3)cc(=O)c2c(OC)c1OC`, the inhibition of growth at 10 µM in data set [1] and in data set [2] was over 50% in each case. The GI50 stood at 21.3 µM in data set [3] and 8.78 µM in data set [4].

`COc1cc2oc(-c3cccc(NC(=O)c4cccc(Br)c4)c3)cc(=O)c2c(O)c1OC`: the inhibition of growth at 10 µM in data set [1] and in data set [2] was over 50% throughout. Also, the GI50 in data set [3] is 44.8 µM; in data set [4], 6.94 µM.

As for `COc1cccc(C(=O)Nc2cccc(-c3cc(=O)c4c(O)c(OC)c(OC)cc4o3)c2)c1`, the inhibition of growth at 10 µM in data set [1] and in data set [2] was over 50% in each case. Besides, the GI50 in data set [3] was over 100 µM; in data set [4], 35.6 µM.

For the compound `COc1cc2oc(-c3cccc(NC(=O)c4ccc([N+](=O)[O-])cc4)c3)cc(=O)c2c(OC)c1OC`, the inhibition of growth at 10 µM in data set [1] and in data set [2] was over 50% throughout. The GI50 amounted to 18.8 µM in data set [3] and 20.1 µM in data set [4].

For the compound `O=c1cc(-c2ccccc2)oc2cc(O)c(O)c(O)c12`, the “growth inhibition (GI)” value in data set [1] and in data set [2] was “inactive” in each case.

As to `COc1ccccc1C(=O)Nc1cccc(-c2cc(=O)c3c(O)c(OC)c(OC)cc3o2)c1`, the inhibition of growth at 10 µM in data set [1] and in data set [2] was over 50% each time. The GI50 is over 100 µM in data set [3] and 1.83 µM in data set [4].

In the case of `COc1cc2oc(-c3cccc(NC(=O)c4ccccc4Br)c3)cc(=O)c2c(OC)c1OC`, the inhibition of growth at 10 µM in data set [1] and in data set [2] was over 50% each time. Also, the GI50 was found to be 23.1 µM in data set [3] and 55 µM in data set [4].

Regarding `COc1cc2oc(-c3cccc(NC(=O)c4cccc(C#N)c4)c3)cc(=O)c2c(OC)c1OC`, the inhibition of growth at 10 µM in data set [1] and in data set [2] was over 50% each time. Further, the GI50 stood at 11.9 µM in data set [3] and 41.7 µM in data set [4].

Take `COc1cc2oc(-c3ccc(NC(=O)c4cccc(Br)c4)cc3)cc(=O)c2c(O)c1OC`: the results for the inhibition of growth at 10 µM in data set [1] and in data set [2] were 40% and under 50%, respectively.

Consider `COc1cc2oc(-c3ccc(NC(=O)c4ccc(F)cc4)cc3)cc(=O)c2c(O)c1OC`, for which the inhibition of growth at 10 µM in data set [1] and in data set [2] was under 50% in each case.

Take `COc1cc2oc(-c3ccc(NC(=O)c4ccc(C#N)cc4)cc3)cc(=O)c2c(O)c1OC`: the inhibition of growth at 10 µM in data set [1] and in data set [2] was under 50% throughout.

`COc1cc2oc(-c3ccc(NC(=O)c4ccccc4)cc3)cc(=O)c2c(O)c1OC`: the inhibition of growth at 10 µM in data set [1] and in data set [2] was under 50% each time.

`COc1ccc(C(=O)Nc2ccc(-c3cc(=O)c4c(O)c(OC)c(OC)cc4o3)cc2)cc1`: the inhibition of growth at 10 µM in data set [1] and in data set [2] was under 50% in each case.

On to `COc1ccc(C(=O)Nc2cccc(-c3cc(=O)c4c(OC)c(OC)c(OC)cc4o3)c2)cc1`, for which the inhibition of growth at 10 µM in data set [1] and in data set [2] was over 50% in each case. In addition, the 50% growth inhibitory concentration (GI50) was 22.2 µM in data set [3] and 6.87 µM in data set [4].

As to `COc1cc2oc(-c3ccc(NC(=O)c4cccc(C#N)c4)cc3)cc(=O)c2c(O)c1OC`, the inhibition of growth at 10 µM in data set [1] and in data set [2] was under 50% throughout.

In the case of `COc1cc2oc(-c3cccc(NC(=O)c4ccc(C#N)cc4)c3)cc(=O)c2c(OC)c1OC`, the inhibition of growth at 10 µM in data set [1] and in data set [2] was over 50% in each case. Moreover, the GI50 in data set [3] turned out to be 10.2 µM; in data set [4], 12.7 µM.

In the case of `COc1cc2oc(-c3ccc(NC(=O)c4ccc(Br)cc4)cc3)cc(=O)c2c(O)c1OC`, the inhibition of growth at 10 µM in data set [1] and in data set [2] was under 50% in each case.

On to `COc1cc2oc(-c3cccc(NC(=O)c4ccc5c(c4)OCO5)c3)cc(=O)c2c(O)c1OC`, for which the inhibition of growth at 10 µM in data set [1] and in data set [2] was over 50% throughout. Besides, the GI50 in data set [3] was found to be 45.1 µM; in data set [4] it was 8.47 µM.

Take `COc1cc2oc(-c3cccc(NC(=O)c4ccc(Br)cc4)c3)cc(=O)c2c(OC)c1OC`: the inhibition of growth at 10 µM in data set [1] and in data set [2] was over 50% throughout. For the same compound, the figures for the GI50 in data set [3] and in data set [4] were 8.85 µM and 9.65 µM, respectively.

As for `COC(=O)c1ccc(C(=O)Nc2cccc(-c3cc(=O)c4c(OC)c(OC)c(OC)cc4o3)c2)cc1`, the inhibition of growth at 10 µM in data set [1] and in data set [2] was over 50% throughout. The 50% growth inhibitory concentration (GI50) in data set [3] is over 100 µM; in data set [4], 30.3 µM.

On to `COc1cc2oc(-c3ccc(NC(=O)c4ccc(Cl)cc4)cc3)cc(=O)c2c(O)c1OC`, for which the inhibition of growth at 10 µM in data set [1] and in data set [2] was under 50% each time.

Regarding `COc1cc2oc(-c3ccc(NC(=O)c4ccccc4Br)cc3)cc(=O)c2c(O)c1OC`, the inhibition of growth at 10 µM in data set [1] and in data set [2] was under 50% each time.

As to `COc1cc2oc(-c3cccc(NC(=O)c4ccccc4)c3)cc(=O)c2c(OC)c1OC`, the inhibition of growth at 10 µM in data set [1] and in data set [2] was over 50% in each case. Further, the concentration for 50% growth inhibition (GI50) in data set [3] was 11.7 µM; in data set [4], 12.1 µM.
